Data reported in publication PMC9921896 (Molecules, 2023).

What was measured:
Assay in all cases: Single concentration Kobs assay (time-dependent inhibition) in HLM
CYP2B6 = target: T1, CYP2B6 (Homo sapiens, UniProt P20813); type: biochemical; settings: for Kobs 2B6: HLM, single concentration, 0.02 min^−1 indicates TD inhibition potential; for Single concentration Kobs assay (risk bin) 2B6: TD inhibition class from Kobs vs 0.02 min^−1 (Table 5 traffic lights)
T1 construct: Using HLM as the enzyme source; from tissue; host or cells: human liver microsomes
T1 sequence (P20813 1-491): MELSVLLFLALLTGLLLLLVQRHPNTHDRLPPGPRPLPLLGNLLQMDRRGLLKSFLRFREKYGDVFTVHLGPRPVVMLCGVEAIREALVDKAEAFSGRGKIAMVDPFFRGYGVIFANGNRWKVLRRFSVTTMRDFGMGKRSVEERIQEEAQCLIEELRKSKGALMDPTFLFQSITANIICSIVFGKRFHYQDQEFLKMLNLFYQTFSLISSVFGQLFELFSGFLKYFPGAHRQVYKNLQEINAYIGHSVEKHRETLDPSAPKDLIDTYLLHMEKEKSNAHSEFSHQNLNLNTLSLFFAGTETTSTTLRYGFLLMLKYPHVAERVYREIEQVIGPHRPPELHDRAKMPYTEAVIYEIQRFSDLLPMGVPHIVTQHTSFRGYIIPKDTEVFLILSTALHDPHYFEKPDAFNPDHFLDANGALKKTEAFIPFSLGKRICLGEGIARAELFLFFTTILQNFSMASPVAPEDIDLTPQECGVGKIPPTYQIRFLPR
Description: (§1) CYP inhibition evaluation is typically performed by either IC50 at single-point or IC50 Shift or abbreviated assay such as the first-order inactivity rate constant (K obs ) at single concentration.
(§2) This method yielded good correlations between the percent inhibition at 10 or 25 μ M and kinact/KI. Evaluation of TD inhibition at single concentration has been implemented in several drug discovery programs. […] Therefore, in this study, a single K obs approach has been utilized to understand the TD inhibition potential of TbB ligands. Ideally, the inhibition of CYPs can be reversible or irreversible. The data obtained from single-concentration K obs studies were analyzed to understand the same. From the data presented in Table 4, the TbB ligands have values less than 50% for reversible inhibition (R_Inh). As the qualified % reversible inhibition is considered significant if >50%, no significant reversible inhibition is observed for TbB ligands. Knowledge about enzyme inactivation half-life (E½) is also equally important as it would provide insight into the TD inhibition of a compound. E½ can be used to bin the compounds as positive or negative TD inhibitors if the values are <28 or >28, respectively. The TbB ligand 223-2 is observed to be a weak positive TD inhibitor of 1A2 and is negative TD inhibitor to the other six CYP isoforms.
(§3) The time-dependent inhibition (TDI) potential of test compounds against CYP1A2, 2B6, 2C8, 2C9, 2C19, 2D6, 3A4/5 isoforms were determined using Human liver microsomes. Assay is performed in 96-deep well plate format (n = 1). Positive controls and DMSO as negative control in each assay. To obtain 100 μ M working stock solution, 1 μ L of blank DMSO/test/reference compounds to 100 μ L 1× DPBS buffer was added and labeled as dilution plate. To the primary incubation plate, 45 μ L of primary mix was dispensed to the desired wells containing 25 μ L HLM, 10 μ L MgCl2, and 10 μ L of NADPH working solutions. To the secondary incubation plate, 95 μ L of secondary mix was dispensed to the desired wells containing 20 μ L MgCl2, 20 μ L NADPH, 10 μ L respective substrates for CYP isoform working solutions and 45 μ L 1× DPBS buffer. Each of these four plates were labeled with their respective time points, i.e., 0, 6, 16, 32 min. Pre-incubated the dilution plate along with primary incubation plate at 37 °C for 15 min at 450 rpm. The reaction was carried out in triplicate. After the incubation, the reaction was quenched by adding 150 μ L ice cold stop solution to all the wells followed by centrifuging the samples at 4000 rpm, 4 °C for 15 min. The supernatant samples were then transferred into vials for LC-MS/MS analysis. The percent Reversible Inhibition was calculated using the following formula. %Reversibleinhibition=100−(PARtestcompt0×100)/(PARaverageDMSOt0)

CYP2C8 = target: T2, CYP2C8 (Homo sapiens, UniProt P10632); type: biochemical; settings: for Kobs 2C8: HLM, 0.02 min^−1 indicates TD inhibition potential; for Kobs 2C8 / inhibition at 30 min: single concentration; for Single concentration Kobs assay (risk bin) 2C8: TD inhibition class from Kobs vs 0.02 min^−1 (Table 5 traffic lights); for inhibition at 30 min: human, human liver microsomes, significant if >50%, read-out: 2C8 R_Inh% (reversible inhibition)
T2 construct: Using HLM as the enzyme source; from tissue; host or cells: human liver microsomes
T2 sequence (P10632 1-490): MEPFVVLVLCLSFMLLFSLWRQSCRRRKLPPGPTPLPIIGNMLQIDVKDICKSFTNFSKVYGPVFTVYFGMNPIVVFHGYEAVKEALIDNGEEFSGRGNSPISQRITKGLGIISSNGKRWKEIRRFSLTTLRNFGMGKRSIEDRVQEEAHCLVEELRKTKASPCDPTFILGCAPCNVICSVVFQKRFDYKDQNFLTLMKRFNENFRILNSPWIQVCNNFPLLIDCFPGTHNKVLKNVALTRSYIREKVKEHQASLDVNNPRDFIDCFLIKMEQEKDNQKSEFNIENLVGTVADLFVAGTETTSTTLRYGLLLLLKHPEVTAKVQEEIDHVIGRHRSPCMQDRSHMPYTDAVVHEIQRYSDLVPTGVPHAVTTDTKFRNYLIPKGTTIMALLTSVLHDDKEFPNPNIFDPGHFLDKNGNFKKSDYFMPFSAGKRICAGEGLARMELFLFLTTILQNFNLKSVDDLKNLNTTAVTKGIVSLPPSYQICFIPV
Description: as §1, §2, §3

CYP2D6 = target: T3, CYP2D6 (Homo sapiens, UniProt P10635); type: biochemical; settings: for Kobs 2D6: HLM, 0.02 min^−1 indicates TD inhibition potential; for Kobs 2D6 / inhibition at 30 min: single concentration; for Single concentration Kobs assay (risk bin) 2D6: TD inhibition class from Kobs vs 0.02 min^−1 (Table 5 traffic lights); for inhibition at 30 min: human, human liver microsomes, significant if >50%, read-out: 2D6 R_Inh% (reversible inhibition)
T3 construct: Using HLM as the enzyme source; from tissue; host or cells: human liver microsomes
T3 sequence (P10635 whole entry): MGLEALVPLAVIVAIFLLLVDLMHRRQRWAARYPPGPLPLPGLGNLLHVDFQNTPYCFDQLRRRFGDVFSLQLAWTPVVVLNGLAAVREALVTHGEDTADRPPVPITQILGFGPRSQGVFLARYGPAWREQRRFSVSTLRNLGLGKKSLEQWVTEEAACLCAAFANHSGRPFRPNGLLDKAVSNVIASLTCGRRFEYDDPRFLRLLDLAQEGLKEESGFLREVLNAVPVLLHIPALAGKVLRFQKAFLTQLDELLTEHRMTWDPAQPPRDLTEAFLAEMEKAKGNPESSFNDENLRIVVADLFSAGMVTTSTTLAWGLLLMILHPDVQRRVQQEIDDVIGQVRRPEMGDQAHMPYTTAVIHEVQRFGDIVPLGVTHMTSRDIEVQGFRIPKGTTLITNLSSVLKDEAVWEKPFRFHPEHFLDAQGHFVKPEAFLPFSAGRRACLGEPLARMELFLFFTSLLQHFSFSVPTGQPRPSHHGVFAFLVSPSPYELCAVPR
Description: as §1, §2, §3

CYP3A4/5 = type: biochemical, human; settings: for Kobs 3A4: HLM, 0.02 min^−1 indicates TD inhibition potential; for Kobs 3A4 / inhibition at 30 min: single concentration; for Single concentration Kobs assay (risk bin) 3A4: TD inhibition class from Kobs vs 0.02 min^−1 (Table 5 traffic lights); for inhibition at 30 min: human, human liver microsomes, significant if >50%, read-out: 3A4 R_Inh% (reversible inhibition)
Description: as §1, §2, §3

| Compound | Kobs 2B6 (CYP2B6) [min⁻¹] | Kobs 2B6 (CYP2B6; listed as 223-02) [min⁻¹] | Single concentration Kobs assay (risk bin) 2B6 (CYP2B6) | Kobs 2C8 (CYP2C8) [min⁻¹] | Single concentration Kobs assay (risk bin) 2C8 (CYP2C8) | inhibition at 30 min (CYP2C8) [%] | Kobs 2D6 (CYP2D6) [min⁻¹] | Single concentration Kobs assay (risk bin) 2D6 (CYP2D6) | inhibition at 30 min (CYP2D6) [%] | Kobs 3A4 (CYP3A4/5) [min⁻¹] | Single concentration Kobs assay (risk bin) 3A4 (CYP3A4/5) | inhibition at 30 min (CYP3A4/5) [%] |
| --- | --- | --- | --- | --- | --- | --- | --- | --- | --- | --- | --- | --- |
| COc1cc(-c2nnn(-c3cc(OC)c(O)c(OC)c3)n2)cc(OC)c1O [223-2] | 0.0147 | 0.01472 | weak positive inhibitor | 0.004276 | negative inhibitor | < 50 | 1.479e-10 | negative inhibitor | < 50 | 0.006312 | negative inhibitor | < 50 |
| Oc1ccc(-c2nnn(-c3ccc(O)cc3)n2)cc1 [223-10] | 0.01121 | – | weak positive inhibitor | 0.01585 | weak positive inhibitor | < 50 | 0.009064 | negative inhibitor | < 50 | 0.001719 | negative inhibitor | < 50 |
| Cc1cc(-c2nnn(-c3cc(C)c(O)c(C)c3)n2)cc(C)c1O [223-3] | 0.02027 | – | weak positive inhibitor | 0.02943 | positive inhibitor | < 50 | 0.01109 | weak positive inhibitor | < 50 | 0.02143 | weak positive inhibitor | < 50 |
